Source: the CheMixHub viscosity set
“And” between values parts separate entries of the source, which are not always exact repeats. Equal values may be shown once. ± gives the uncertainty stated by the source.

How the values were obtained:
[1] = xn = mol fraction of the nth substance listed

CCc1ccccc1
Conditions	viscosity
298 K, 101 kPa	0.6295 ± 0.0052 mPa·s
298.15 K, 101 kPa	0.6076 ± 0.0076 mPa·s and 0.631 ± 0.008 mPa·s
298.15 K, 101.3 kPa	0.657 ± 0.006 mPa·s
298.15 K, 101.33 kPa	0.625 ± 0.017 mPa·s
303 K, 101.33 kPa	0.574 ± 0.0054 mPa·s
303.15 K, 100 kPa	0.592 ± 0.008 mPa·s
303.15 K, 101 kPa	0.5916 ± 0.0053 mPa·s
303.15 K, 101.33 kPa	0.584 ± 0.005 mPa·s
308.15 K, 100 kPa	0.56 ± 0.008 mPa·s
308.15 K, 101.33 kPa	0.5797 ± 0.0078 mPa·s and 0.56 ± 0.015 mPa·s
313 K, 101.33 kPa	0.513 ± 0.0049 mPa·s
313.15 K, 100 kPa	0.53 ± 0.008 mPa·s
313.15 K, 101.33 kPa	0.531 ± 0.004 mPa·s
318.15 K, 100 kPa	0.503 ± 0.008 mPa·s
318.15 K, 101.33 kPa	0.502 ± 0.014 mPa·s and 0.5038 ± 0.005 mPa·s
323 K, 101.33 kPa	0.464 ± 0.0045 mPa·s
323.15 K, 100 kPa	0.478 ± 0.007 mPa·s
323.15 K, 101.33 kPa	0.474 ± 0.013 mPa·s

CC1=CCC(=C(C)C)CC1
101 kPa
Conditions	viscosity [mPa·s]
303.15 K	1.007 ± 0.055
308.15 K	0.945 ± 0.051
313.15 K	0.884 ± 0.048

CCCCCCCCCCCCCCCCCCCCCC
Conditions	viscosity [mPa·s]
323.1 K, 101.3 kPa	4.128 ± 0.046

CCCCCC(=O)O.CCCCCC(=O)[O-].CC[NH+](CC)CCO
101 kPa
Conditions	viscosity [mPa·s]
293.15 K	76.9 ± 1.7
298.15 K	60.01 ± 1.3
303.15 K	47.52 ± 1
308.15 K	38.14 ± 0.82
313.15 K	31 ± 0.67
318.15 K	25.48 ± 0.55
323.15 K	21.16 ± 0.45

C=CC(=O)OCC
viscosity
Conditions	293.15 K	298.15 K	303.15 K	308.15 K	313.15 K	318.15 K
100 kPa	0.5685 ± 0.011 mPa·s	0.533 ± 0.011 mPa·s	0.5 ± 0.011 mPa·s	0.4643 ± 0.01 mPa·s	0.423 ± 0.01 mPa·s	0.3813 ± 0.01 mPa·s
101 kPa	0.5685 ± 0.023 mPa·s and 0.573 ± 0.07 mPa·s	–	0.5 ± 0.02 mPa·s and 0.504 ± 0.07 mPa·s and 0.502 ± 0.008 mPa·s	–	0.423 ± 0.017 mPa·s and 0.443 ± 0.07 mPa·s and 0.42 ± 0.007 mPa·s	0.3813 ± 0.016 mPa·s and 0.421 ± 0.07 mPa·s

Clc1ccccc1
Conditions	viscosity
293.15 K, 101 kPa	0.768 ± 0.008 mPa·s and 0.793 ± 0.014 mPa·s and 0.8062 ± 0.021 mPa·s
293.15 K, 101.33 kPa	0.806 ± 0.011 mPa·s and 0.8522 ± 0.045 mPa·s
293.45 K, 101.33 kPa	0.8265 ± 0.011 mPa·s
298.15 K, 101.3 kPa	0.773 ± 0.011 mPa·s
298.15 K, 101.33 kPa	0.8131 ± 0.043 mPa·s and 0.755 ± 0.008 mPa·s
299 K, 101 kPa	1.182 mPa·s
303.15 K, 101.3 kPa	0.725 ± 0.01 mPa·s
303.55 K, 101.33 kPa	0.743 ± 0.0086 mPa·s
308.15 K, 101.3 kPa	0.666 ± 0.018 mPa·s and 0.683 ± 0.01 mPa·s
312.75 K, 101.33 kPa	0.6695 ± 0.0084 mPa·s
313.15 K, 101.33 kPa	0.6469 ± 0.0064 mPa·s and 0.639 ± 0.005 mPa·s
314.25 K, 101.33 kPa	0.643 ± 0.0081 mPa·s
318.15 K, 101 kPa	0.5629 ± 0.056 mPa·s and 0.5924 ± 0.021 mPa·s and 0.601 ± 0.016 mPa·s
318.15 K, 101.3 kPa	0.615 ± 0.016 mPa·s
318.15 K, 101.33 kPa	0.607 ± 0.006 mPa·s
322.35 K, 101.33 kPa	0.6069 ± 0.007 mPa·s
323.15 K, 101 kPa	0.5724 ± 0.0052 mPa·s and 0.5701 ± 0.023 mPa·s and 0.566 ± 0.015 mPa·s
323.15 K, 101.33 kPa	0.5724 ± 0.0058 mPa·s

CCOP(=O)(OCC)OCC
Conditions	viscosity [mPa·s]
298.15 K, 101.3 kPa	1.503 ± 0.022

N#CCCCCC#N
Conditions	viscosity [mPa·s]
303.15 K, 101.33 kPa	4.905 ± 0.027

COC(C)(C)C
viscosity
Conditions	293.15 K	298.15 K	303.15 K	308.15 K	313.15 K	318.15 K	323.15 K
100 kPa	0.345 ± 0.021 mPa·s	0.32 ± 0.02 mPa·s	0.297 ± 0.021 mPa·s	0.275 ± 0.021 mPa·s	0.252 ± 0.02 mPa·s	0.231 ± 0.02 mPa·s	0.206 ± 0.02 mPa·s
101 kPa	0.387 ± 0.05 mPa·s and 0.371 ± 0.0079 mPa·s	0.374 ± 0.05 mPa·s and 0.3558 ± 0.0075 mPa·s and 0.348 ± 0.005 mPa·s	–	0.341 ± 0.05 mPa·s and 0.3245 ± 0.0069 mPa·s	0.321 ± 0.05 mPa·s	0.297 ± 0.05 mPa·s	0.276 ± 0.05 mPa·s
101.33 kPa	0.3861 ± 0.021 mPa·s and 0.3861 ± 0.039 mPa·s	0.3687 ± 0.02 mPa·s and 0.3687 ± 0.037 mPa·s and 0.3353 ± 0.0037 mPa·s	0.3163 ± 0.02 mPa·s	–	0.2876 ± 0.0093 mPa·s	–	–

COC(C)(C)C + CC(C)CC(C)(C)C
[1]
Conditions	viscosity [mPa·s]
298.15 K, 101.33 kPa, x1 = 0.125	0.4633 ± 0.0043
298.15 K, 101.33 kPa, x1 = 0.2442	0.4465 ± 0.0042
298.15 K, 101.33 kPa, x1 = 0.3612	0.4301 ± 0.0041
298.15 K, 101.33 kPa, x1 = 0.462	0.4159 ± 0.0041
298.15 K, 101.33 kPa, x1 = 0.5638	0.4012 ± 0.004
298.15 K, 101.33 kPa, x1 = 0.6579	0.3878 ± 0.0039
298.15 K, 101.33 kPa, x1 = 0.7533	0.3739 ± 0.0039
298.15 K, 101.33 kPa, x1 = 0.8375	0.3611 ± 0.0038
298.15 K, 101.33 kPa, x1 = 0.9182	0.3483 ± 0.0038
303.15 K, 101 kPa, x1 = 0.1862	0.436 ± 0.003
303.15 K, 101 kPa, x1 = 0.3104	0.423 ± 0.003
303.15 K, 101 kPa, x1 = 0.3813	0.416 ± 0.003
303.15 K, 101 kPa, x1 = 0.4961	0.404 ± 0.003
303.15 K, 101 kPa, x1 = 0.6203	0.39 ± 0.003
303.15 K, 101 kPa, x1 = 0.6609	0.386 ± 0.003
303.15 K, 101 kPa, x1 = 0.8925	0.36 ± 0.003

CCCCCCCCCCCCCCCCCCCCCC + CCCCCCCCCC
viscosity [mPa·s], [1], 101.3 kPa
Conditions	x2 = 0.4	x2 = 0.5	x2 = 0.6	x2 = 0.799
303.2 K	–	–	–	1.47 ± 0.02
313.2 K	2.93 ± 0.04	2.53 ± 0.03	2.05 ± 0.03	1.24 ± 0.02
